Laboratory results reported in PubChem BioAssay (NCI).
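Cultured in 96-well plates, cells were exposed to test compound for 48 hours across five concentrations. TGI marks complete inhibition of growth.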

Tests used:
Assay in all cases: NCI anticancer screen, dose series, 48 h
[1] = test system: CAKI-1 renal
[2] = test system: HCT-15 colon
[3] = test system: A498 renal
[4] = test system: OVCAR-5 ovarian
[5] = test system: UO-31 renal
[6] = test system: KM12 colon
[7] = test system: RPMI-8226 leukemia
[8] = test system: HT29 colon
[9] = test system: PC-3 prostate
[10] = test system: NCI-H460 lung

Row | SMILES | TGI [1] [µM] | TGI [2] [µM] | TGI [3] [µM] | TGI [4] [µM] | TGI [5] [µM] | TGI [6] [µM] | TGI [7] [µM] | TGI [8] [µM] | TGI [9] [µM] | TGI [10] [µM]
1 | COc1cc(C(N)=O)cc(NC(=O)/C=C/c2ccccc2)c1OC | > 100 | > 100 | > 100 | > 100 | > 100 | > 100 | > 100 | > 100 | > 100 | > 100
2 | Cc1c(CCCl)c(N=[N+]=[N-])n2c(nc3ccccc32)c1C#N | 3 | 2.72 | 3.85 | 4.73 | 3.32 | 3.27 | 2.33 | 4.52 | 2.72 | 3.32
3 | CN(C)CCNC(=O)c1cccc2nc3cccc(F)c3nc12 | 15.8 | 5.77 | 5.14 | 7.06 | 4.83 | 8.43 | 5.65 | 8.34 | 4.26 | 2.73
4 | COC(=O)NN=C(c1ccc(Cl)cc1)c1ccc(Cl)cc1 | > 100 | > 100 | > 100 | > 100 | > 100 | > 100 | > 100 | > 100 | > 100 | > 100
5 | O=C1Nc2ccccc2Nc2nc3cccccc-3c21 | > 100 | > 100 | – | > 100 | > 100 | > 100 | > 100 | > 100 | – | > 100
6 | CC(C)OP(=O)(OC(C)C)/C(=N/N)NNc1ccc([N+](=O)[O-])cc1 | > 100 | > 100 | > 100 | > 100 | > 100 | > 100 | > 100 | – | – | > 100
7 | CC(C)(C)OC(=O)NC(Cc1cnc[nH]1)C(=O)N1CCCC1C(N)=O (stereo not drawn) | > 100 | > 100 | > 100 | > 100 | > 100 | > 100 | > 100 | > 100 | > 100 | > 100
8 | N#CC1CCN2N=C(c3ccccc3)SC12c1ccccc1 (stereo not drawn) | > 100 | > 100 | – | > 100 | > 100 | > 100 | > 100 | > 100 | > 100 | > 100
9 | O=C1CC(=O)c2c(Cl)sc(Cl)c21 | > 100 | > 100 | > 100 | > 100 | > 100 | > 100 | – | > 100 | – | > 100
10 | CN(C)CCCNc1nnc(NCCCN(C)C)c2c(=O)c3sccc3[nH]c12 | > 48.9 | > 91.5 | > 100 | > 85.1 | 9.15 | > 58.3 | 57.2 | – | > 61.4 | 20.7
11 | Cc1ccc(CS(=O)(=O)C/N=c2\sc3ccccc3nc2/C=C(\O)c2ccc(Cl)cc2)cc1 | > 10 | > 10 | – | > 10 | – | > 10 | > 10 | > 10 | > 10 | –
12 | COc1ccc(C(C2C(=O)N(C)C(=O)N(C)C2=O)C(F)(F)C(=O)N(C)C)cc1 (stereo not drawn) | > 100 | > 100 | > 100 | > 100 | > 100 | > 100 | > 100 | – | > 100 | > 100
13 | CC(C)C(=O)/C=C/c1ccc(Cl)cc1 | – | – | – | 35.4 | 24.5 | 23.8 | 67.2 | 31.7 | – | 42.3
14 | COC(=O)N/N=C/c1oc(-c2ccccc2)c(-c2ccccc2)c1[N+](=O)[O-] | > 100 | > 100 | – | > 100 | > 100 | > 100 | > 100 | > 100 | – | > 100
15 | Cc1ccc2c(c1)[nH]c(=S)n2C=C1C(=O)CC(C)(C)CC1=O | > 100 | > 100 | > 100 | > 100 | > 100 | > 100 | – | > 100 | > 100 | > 100
16 | CC1C/C(=N\N(C)C)C(C#N)(C#N)C1(C#N)C#N (stereo not drawn) | 3.38 | 21.1 | – | 48.5 | 30.3 | > 31.6 | 25.5 | 18.7 | 47.2 | –
17 | COc1ccc(N[C@H](CS(=O)c2ccc(C)cc2)C(F)(F)C(F)(F)F)cc1 (stereo partly drawn) | > 100 | > 100 | > 100 | > 100 | > 100 | > 100 | > 100 | > 100 | – | > 100
18 | CSc1ccc2c(cc1=O)C(NC(=O)c1ccc(OC(C)=O)cc1)CCc1cc(O)c(O)c(O)c1-2 (stereo not drawn) | – | 34.9 | > 100 | 78 | > 100 | > 100 | – | 37.9 | – | 50.4
19 | CC(C)N=C(NC#N)NS(=O)(=O)c1cnccc1Nc1ccc(Cl)cc1 | > 100 | > 100 | > 100 | > 100 | > 100 | > 100 | > 100 | > 100 | > 100 | –
20 | OCC1OC(n2nc(-c3ccccc3)nc2-c2cnccn2)C(O)C1O (stereo not drawn) | – | > 100 | – | > 100 | > 100 | > 100 | – | > 100 | > 100 | > 100
21 | C#CCOC(=O)C(N)CSSCC(N)C(=O)O (stereo not drawn) | > 100 | > 100 | > 100 | > 100 | > 100 | > 100 | > 100 | – | > 100 | > 100
22 | CC(=O)NCCc1c[nH]c2ccc(Cl)cc12 | > 100 | > 100 | – | > 100 | > 100 | > 100 | > 100 | > 100 | > 100 | > 100
23 | Cc1nc2ccccc2c(=O)n1NC(=O)c1ccccc1O | – | > 100 | > 100 | > 100 | > 100 | > 100 | > 100 | > 100 | > 100 | > 100
